{
  "source": "patent US11696913B2",
  "about": "“Prolonged ectoparasite-controlling agent for animal” (MITSUI CHEMICALS AGRO, INC., priority 2017, dated 2023)",
  "key": {"Dermacentor variabilis [1]": {"test_system": "Dermacentor variabilis", "assay": "In vitro contact test with adult hard ticks (Dermacentor variabilis)", "details": "read-out: acaricidal activity", "in_short": "(§1)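 Acaricidal activity = % ticks dead or moribund after 48 h contact with acetone-deposited compound on vial walls (e.g., 900 ppm solution → 5 μg/cm^2). Ambient conditions for R. sanguineus, 21° C./85% rel. hum. for other species; heat challenge at 45-50° C. separated climbers from moribund ticks.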"}, "Ixodes ricinus": {"test_system": "Ixodes ricinus", "assay": "In vitro contact test with adult hard ticks (Ixodes ricinus)", "details": "read-out: acaricidal activity", "in_short": "as §1"}, "Ctenocephalides felis [2]": {"test_system": "Ctenocephalides felis", "assay": "Ctenocephalides felis in-vitro feeding test with fleas (CTECFE oral)", "details": "48 hours, read-out: insecticidal feeding activity", "in_short": "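Scored as percent fleas killed (0–100%) 48 hours after feeding began. Compound, dissolved in DMSO and diluted into citrated cattle blood, was offered via a parafilm membrane to roughly 20 adult male and female C. felis at about 37° C.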"}, "Dermacentor variabilis [3]": {"test_system": "Dermacentor variabilis", "assay": "Topical treatment in-vivo test with American dog tick nymph on rats", "details": "topical spot-on, 25 mg/kg", "procedure": "Topical Treatment In-Vivo Test with American Dog Tick Nymph and Cat Flea on Rats\nType of study and overall study design: The method is a randomized non-blinded efficacy study in accordance with European animal welfare requirements. Rats (Rattus norvegicus) were randomized based on pre-treatment flea counts. The efficacy of treatment was determined by comparison of the flea and tick counts of different treatment groups versus the placebo-treated control group. The experimental unit was the individual study animal.\nMethod and route of administration: The compound was applied in a suitable solvent and carrier (more specifically, added to the following mixture: 33.3% by weight propylene carbonate, […] N-methylpyrrolidone, 0.1% by weight BHA, 0.05% by weight BHT) considering the individual body weight as topical spot-on between the shoulder blades directly onto the skin.\n(§2) Experimental infestation: On the day of treatment and weekly thereafter, 30 ticks (D. variabilis nymphs) were released onto the back of each rat, and 30 fleas (C. felis) were released onto the back of each rat 24 h later.\nTick and Flea counting: Rats were thoroughly examined and ticks and fleas were manually removed 48 h (+4 h) after tick infestation and 24 h after flea infestation. Live fleas and live attached engorged ticks were counted. In non-evident cases, engorgement status was evaluated by squeezing the tick on a filter paper to find traces of blood as sign for engorgement."}, "Ctenocephalides felis [4]": {"test_system": "Ctenocephalides felis", "assay": "Topical treatment in-vivo test with cat flea on rats", "details": "topical spot-on, 25 mg/kg", "in_short": "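Rats given a body-weight-based topical spot-on between the shoulder blades in propylene carbonate/N-methylpyrrolidone/BHA/BHT vehicle; infested weekly from treatment day with 30 D. variabilis nymphs, and 30 C. felis 24 h later. Live attached engorged ticks counted at 48 h and live fleas at 24 h, versus placebo controls.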"}, "Dermacentor variabilis [5]": {"test_system": "Dermacentor variabilis", "assay": "Systemic treatment in-vivo test with American dog tick nymph on rats", "details": "Dermacentor variabilis, ip, intraperitoneal injection", "procedure": "Systemic Treatment In-Vivo Test with American Dog Tick Nymph and Cat Flea on Rats\nType of study and overall study design: The method is a randomized non-blinded efficacy study in accordance with European animal welfare requirements. Rats (Rattus norvegicus) were randomized based on pre-treatment flea counts. The efficacy of treatment was determined by comparison of the flea and tick counts of different treatment groups versus the placebo-treated control group. The experimental unit was the individual study animal. Method and route of administration: The compound was applied in a suitable solvent and carrier (more specifically, added to glycerol formal; in case of poorly soluble compounds, a solvent mixture with up to 25% by volume of N-methyl pyrrolidone may be used.) considering the individual body weight as an intraperitoneal injection.\nas §2\nTick and Flea counting: Rats were thoroughly examined and ticks and fleas were manually removed 48 h (±4 h) after tick infestation and 24 h after flea infestation. Live fleas and live attached engorged ticks were counted. In non-evident cases, engorgement status was evaluated by squeezing the tick on a filter paper to find traces of blood as sign for engorgement."}, "[6]": {"details": "SD 2, read-out: Geometric mean percent reduction in live tick (Dermacentor variabilis) counts compared to untreated control rats"}, "[7]": {"details": "SD 9, read-out: Geometric mean percent reduction in live tick (Dermacentor variabilis) counts compared to untreated control rats"}, "[8]": {"details": "SD 16, read-out: Geometric mean percent reduction in live tick (Dermacentor variabilis) counts compared to untreated control rats"}, "[9]": {"details": "SD 23, read-out: Geometric mean percent reduction in live tick (Dermacentor variabilis) counts compared to untreated control rats"}},
  "note": "Where two headings read alike, the source gives them in different places.",
  "data": [
    {"compound": "O=C(Nc1cccc(C(=O)Nc2c(I)cc(C(F)(C(F)(F)F)C(F)(F)F)cc2C(F)(F)F)c1F)c1ccc(C(F)(F)F)nc1", "note": "[Compound 67, N-(2-fluoro-3-((2-iodo-4-(perfluoropropan-2-yl)-6-(trifluoromethyl)phenyl)carbamoyl)phenyl)-6-(trifluoromethyl)nicotinamide]", "values": [
      {"measurement": "pest or weed control at 0.2 µg/cm2, 0.2 µg/cm2", "setting": "Dermacentor variabilis [1]; dose 0.2 μg/cm^2, 48 h", "value": 90, "unit": "%"},
      {"measurement": "pest or weed control at 1 µg/cm2, 1 µg/cm2", "setting": "Dermacentor variabilis [1]; dose 1 μg/cm^2, 48 h", "value": 90, "unit": "%"},
      {"measurement": "pest or weed control at 0.2 µg/cm2, 0.2 µg/cm2", "setting": "Ixodes ricinus; dose 0.2 μg/cm^2, 48 h", "value": 90, "unit": "%"},
      {"measurement": "pest or weed control at 1 µg/cm2, 1 µg/cm2", "setting": "Ixodes ricinus; dose 1 μg/cm^2, 48 h", "value": 90, "unit": "%"},
      {"measurement": "pest or weed control at 5 µg/cm2, 5 µg/cm2", "setting": "Ixodes ricinus; dose 5 μg/cm^2, 48 h", "value": 90, "unit": "%"},
      {"measurement": "pest or weed control at 0.16 ppm", "setting": "Ctenocephalides felis [2]; dose 0.16 ppm in citrated cattle blood", "value": 95, "unit": "%"},
      {"measurement": "pest or weed control at 0.8 ppm", "setting": "Ctenocephalides felis [2]; dose 0.8 ppm in citrated cattle blood", "value": 95, "unit": "%"},
      {"measurement": "pest or weed control at 4 ppm", "setting": "Ctenocephalides felis [2]; dose 4 ppm in citrated cattle blood", "value": 95, "unit": "%"},
      {"measurement": "Geometric mean percent reduction in live tick (Dermacentor variabilis) counts compared to untreated control rats", "setting": "Dermacentor variabilis [3]; SD 2", "value": 57, "unit": "%"},
      {"measurement": "Geometric mean percent reduction in live tick (Dermacentor variabilis) counts compared to untreated control rats", "setting": "Dermacentor variabilis [3]; SD 9", "value": 98, "unit": "%"},
      {"measurement": "Geometric mean percent reduction in live tick (Dermacentor variabilis) counts compared to untreated control rats", "setting": "Dermacentor variabilis [3]; SD 16", "value": 100, "unit": "%"},
      {"measurement": "Geometric mean percent reduction in live tick (Dermacentor variabilis) counts compared to untreated control rats", "setting": "Dermacentor variabilis [3]; SD 23", "value": 100, "unit": "%"},
      {"measurement": "Geometric mean percent reduction in live tick (Dermacentor variabilis) counts compared to untreated control rats", "setting": "Dermacentor variabilis [3]; SD 30", "value": 77, "unit": "%"},
      {"measurement": "Geometric mean percent reduction in live flea (Ctenocephalides felis) counts compared to untreated control rats", "setting": "Ctenocephalides felis [4]; SD 2", "value": 98, "unit": "%"},
      {"measurement": "Geometric mean percent reduction in live flea (Ctenocephalides felis) counts compared to untreated control rats", "setting": "Ctenocephalides felis [4]; SD 9", "value": 93, "unit": "%"},
      {"measurement": "Geometric mean percent reduction in live flea (Ctenocephalides felis) counts compared to untreated control rats", "setting": "Ctenocephalides felis [4]; SD 16", "value": 97, "unit": "%"},
      {"measurement": "Geometric mean percent reduction in live flea (Ctenocephalides felis) counts compared to untreated control rats", "setting": "Ctenocephalides felis [4]; SD 23", "value": 81, "unit": "%"},
      {"measurement": "Geometric mean percent reduction in live flea (Ctenocephalides felis) counts compared to untreated control rats", "setting": "Ctenocephalides felis [4]; SD 30", "value": 79, "unit": "%"},
      {"measurement": "inhibition in vivo at 2 mg/kg", "setting": "Dermacentor variabilis [5]; [6]", "value": 100, "unit": "%"},
      {"measurement": "inhibition in vivo at 2 mg/kg", "setting": "Dermacentor variabilis [5]; [7]", "value": 95, "unit": "%"},
      {"measurement": "inhibition in vivo at 2 mg/kg", "setting": "Dermacentor variabilis [5]; [8]", "value": 32, "unit": "%"},
      {"measurement": "inhibition in vivo at 2 mg/kg", "setting": "Dermacentor variabilis [5]; [9]", "value": 20, "unit": "%"},
      {"measurement": "inhibition in vivo at 10 mg/kg", "setting": "Dermacentor variabilis [5]; [6]", "value": 100, "unit": "%"},
      {"measurement": "inhibition in vivo at 10 mg/kg", "setting": "Dermacentor variabilis [5]; [7]", "value": 100, "unit": "%"},
      {"measurement": "inhibition in vivo at 10 mg/kg", "setting": "Dermacentor variabilis [5]; [8]", "value": 99, "unit": "%"},
      {"measurement": "inhibition in vivo at 10 mg/kg", "setting": "Dermacentor variabilis [5]; [9]", "value": 75, "unit": "%"},
      {"measurement": "inhibition in vivo at 10 mg/kg", "setting": "Dermacentor variabilis [5]; SD 30, read-out: Geometric mean percent reduction in live tick (Dermacentor variabilis) counts compared to untreated control rats", "value": 57, "unit": "%"}
    ]}
  ]
}
